# In patent US12035716B2, “Treatment for seeds disinfection” (VILMORIN & CIE, priority 2013, dated 2024):
# Where two headings read alike, the source gives them in different places.
# What was measured:
# [1] = test system: melon seeds; details: vacuum infiltration 0.5%
# [2] = test system: CGMMV
# Experimental: Samples of two commercial cucumber seed lots naturally infected by CGMMV in the production field were treated by standard disinfection or by vacuum infiltration methods. All treatments were done on 1500 seed in 300 ml solution for 40 minutes, followed by 40 minutes wash under running water. For the standard disinfection we used 2.5% Na-Dichloroisocyanurate solution and for the vacuum infiltration we used a solution containing 1.5% Na-Dichloroisocyanurate. The vacuum/de vacuum cycles were applied gradually starting at 500 mbar and increased by 100 mbar each cycle up to the maximum of 985 mbar. Then we continued vacuum/de-vacuum cycles at maximum vacuum pressure of 985 mbar for a total of 30 cycles. At the end of the treatment the floating seeds were discarded and the heavy fraction was collected, washed and dried for testing.
# CGMMV was tested by ELISA assay according to method 7-026 of the international rules for seed testing annex to chapter 7: seed health testing methods; International Seed Testing Association, Zurich, Switzerland, 2010. The germination test was performed on petri dishes (TOP) at 24 C incubator and root protrusion was counted at 4 days after seeding (TOP at 4 d).
# [3] = seed lot A, VI disinfection 1.5%, heavy fraction
# [4] = seed lot A, standard disinfection 2.5%
# [5] = seed lot B, VI disinfection 1.5%, heavy fraction
# [6] = seed lot B, standard disinfection 2.5%
compound,measurement,setting,value
O=c1nc([O-])n(Cl)c(=O)n1Cl.[Na+] [Na-Dichloroisocyanurate],Germination,"[1]; floating fraction, counted at 4 days",96%
same,Germination,"[1]; floating fraction, counted at 7 days",92%
same,Germination,"[1]; heavy fraction, counted at 4 days",99%
same,Germination,"[1]; heavy fraction, counted at 7 days",99%
same,"ELISA 10 replicates results, Positive/total",[2]; [3],0/10
same,Remarks (seed health),[2]; [3],Clean
same,"ELISA 10 replicates results, Average count","[2]; seed lot A, VI disinfection 1.5%, heavy fraction, cut-off 0.148, untreated 0.693",0.072
same,"ELISA 10 replicates results, Positive/total",[2]; [4],9/10
same,Remarks (seed health),[2]; [4],Contaminated
same,"ELISA 10 replicates results, Average count","[2]; seed lot A, standard disinfection 2.5%, cut-off 0.174, untreated 0.693",0.238
same,"ELISA 10 replicates results, Positive/total",[2]; [5],0/10
same,Remarks (seed health),[2]; [5],Clean
same,"ELISA 10 replicates results, Average count","[2]; seed lot B, VI disinfection 1.5%, heavy fraction, cut-off 0.148, untreated 0.737",0.075
same,"ELISA 10 replicates results, Positive/total",[2]; [6],4/10
same,Remarks (seed health),[2]; [6],Contaminated
same,"ELISA 10 replicates results, Average count","[2]; seed lot B, standard disinfection 2.5%, cut-off 0.156, untreated 0.737",0.177
